In patent US20240381872A1, “SUBSTITUTED 2,3-DIHYDRO[1,3]THIAZOLO[4,5-B]PYRIDINES, SALTS THEREOF AND THEIR USE AS HERBICIDALLY ACTIVE SUBSTANCES” (BAYER AKTIENGESELLSCHAFT, priority 2021, published 2024):

Tests used:
Assay type in all cases: in vivo
[1] = test system: Zea mays (ZEAMX); test: Pre-emergence effects on crop plants, section D (Table D1); details: visual grading after ca. 3 weeks
Method in brief: (§1)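 Read-out: visual percent injury versus untreated controls at ca. 3 weeks (0% as control, 100% dead). Treatment: aqueous WP/EC suspension or emulsion with 0.5% additive, 600 l/ha, on soil covering seeds in sandy loam, at 320 g/ha or below, under optimum greenhouse conditions.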

[2] = test system: Lolium rigidum (LOLRI); test: Herbicidal pre-emergence action, section C (Table C5); details: visual grading after ca. 3 weeks; for pest or weed control at 80 g/ha: application rate 80 g/ha
Description: Seeds of mono- and dicotyledonous weed plants and crop plants were sown, in plastic or organic planting pots, in sandy loam and covered with soil. The compounds according to the invention, formulated in the form of wettable powders (WP) or as emulsifiable concentrates (EC), were applied to the surface of the covering soil as aqueous suspension or emulsion, with the addition of 0.5% of an additive, at an application rate of 600 l of water/ha (converted). Following treatment, the pots were placed in a greenhouse and kept under optimum growth conditions for the test plants. The visual grading of the damage to the test plants was carried out after ca. 3 weeks in comparison to untreated controls (herbicidal effect in percent (%): 100% effect=plants have died off, 0% effect=as control plants).

[3] = test system: Setaria viridis (SETVI); test: Herbicidal pre-emergence action, section C (Table C8); details: visual grading after ca. 3 weeks; for pest or weed control at 80 g/ha: Setaria viridis, pre-emergence, 504 h, read-out: pre-emergence activity against SETVI in %
Method in brief: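 Pre-emergence greenhouse test: visual percent damage scored about 3 weeks after treatment, relative to untreated pots (100% = dead, 0% = no effect). Formulated compounds (WP or EC, plus 0.5% additive) were applied in 600 l water/ha to the covering soil over seeds sown in sandy loam.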

[4] = test system: Zea mays (ZEAMX); test: Post-emergence effects on crop plants, section F (Table F1); details: for post-emergence activity against ZEAMX in %: crop plant damage; for percent crop plant damage (phytotoxicity) on Zea mays, post-emergence at 80 g/ha: application rate 80 g/ha
Method in brief: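 Percent damage was rated by eye roughly 3 weeks after treatment against untreated plants, where 0% = as control and 100% = died off. Spraying used WP or EC formulations plus 0.5% additive at 600 l water/ha, with rates of 320 g/ha or less. Plants were at the single-leaf stage, sown 2-3 weeks earlier in sandy loam under greenhouse conditions.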

[5] = test system: Oryza sativa (ORYZA); test: Post-emergence effects on crop plants, section F (Table F3); details: for post-emergence activity against ORYZA in %: crop plant damage; for percent crop plant damage at 80 g/ha: application rate 80 g/ha
Description: Seeds of mono- and dicotyledonous weed plants and crop plants were sown, in plastic or organic planting pots, in sandy loam, covered with soil and grown in a greenhouse under controlled growth conditions. 2 to 3 weeks after sowing, the test plants were sprayed in the single-leaf stage. The compounds according to the invention, formulated in form of wettable powders (WP) or as emulsifiable concentrates (EC), were sprayed onto the green plant parts as aqueous suspension or emulsion, with the addition of 0.5% of an additive, at an application rate of 600 l of water/ha (converted). The test plants were placed in the greenhouse for ca. 3 weeks under optimum growth conditions, and then the effect of the preparations was assessed visually in comparison with untreated controls (herbicidal effect in percent (%): 100% effect=plants have died off, 0% effect=as control plants). Tables F1 to F4 below show the effects of selected compounds of the general formula (I) according to Table 1 on various crop plants and an application rate corresponding to 320 g/ha or below obtained by the experimental procedure mentioned above.

[6] = test system: Abutilon theophrasti (ABUTH); test: Herbicidal pre-emergence action, section A (Table A1); details: application rate 1280 g/ha, visual grading after ca. 3 weeks vs untreated controls; for pest or weed control at 1280 g/ha: Abutilon theophrasti, pre-emergence, 504 h, read-out: pre-emergence activity against ABUTH in %
Method in brief: (§2)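 Visual scoring at approximately 3 weeks, relative to untreated pots, gave percent effect after compounds in WP or EC form were sprayed onto covering soil of sown seeds (sandy loam) in water with 0.5% additive at 600 l/ha, then kept in greenhouse.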

[7] = test system: Triticum aestivum (TRZAS); test: Pre-emergence effects on crop plants, section D (Table D2); details: application rate 80 g/ha; visual grading after ca. 3 weeks
Method in brief: as §1

[8] = test system: Veronica persica (VERPE); test: Herbicidal pre-emergence action, section A (Table A10); details: application rate 1280 g/ha; for pest or weed control at 1280 g/ha: Veronica persica, 504 h, read-out: pre-emergence activity against VERPE in %
Method in brief: as §2

[9] = test system: Echinochloa crus-galli (ECHCG); test: Herbicidal pre-emergence action, section A (Table A3); details: visual grading after ca. 3 weeks vs untreated controls; for pest or weed control at 320 g/ha: Echinochloa crus-galli, pre-emergence, 504 h, read-out: pre-emergence activity against ECHCG in %
Method in brief: as §2

[10] = test system: Setaria viridis (SETVI); test: Herbicidal pre-emergence action, section A (Table A8); details: for pest or weed control at 320 g/ha: Setaria viridis, 504 h, read-out: pre-emergence activity against SETVI in %
Method in brief: as §2

[11] = test system: Digitaria sanguinalis (DIGSA); test: Herbicidal post-emergence action, section B (Table B12); details: application rate 1280 g/ha; visual rating about 3 weeks after treatment vs untreated controls
Method in brief: (§3)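 Post-emergence greenhouse test. One-leaf stage; WP or EC plus 0.5% additive; 600 liters per hectare water volume; visual % rating at ~3 weeks relative to untreated plants.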

[12] = test system: Echinochloa crus-galli (ECHCG); test: Herbicidal post-emergence action, section B (Table B3); details: application rate 1280 g/ha, rated visually after about 3 weeks; for pest or weed control at 1280 g/ha: Echinochloa crus-galli, 504 h, read-out: post-emergence activity against ECHCG in %
Method in brief: as §3

[13] = Lolium rigidum, pre-emergence, 504 h, read-out: pre-emergence activity against LOLRI in %
[14] = Zea mays, 504 h, read-out: post-emergence activity against ZEAMX in %
[15] = Oryza sativa, 504 h, read-out: post-emergence activity against ORYZA in %

SMILES	pest or weed control at 80 g/ha [2, 13]	pest or weed control at 80 g/ha ([3]; application rate 80 g/ha)	pre-emergence activity against VERPE in % [8]	post-emergence activity against ZEAMX in % ([4]; application rate 320 g/ha)	post-emergence activity against ORYZA in % ([5]; application rate 320 g/ha)	pest or weed control at 1280 g/ha [6]	pest or weed control at 1280 g/ha [12]	pest or weed control at 1280 g/ha [8]	pest or weed control at 320 g/ha ([9]; application rate 320 g/ha)	pest or weed control at 320 g/ha ([10]; application rate 320 g/ha)	percent crop plant damage (phytotoxicity) on Zea mays, post-emergence at 80 g/ha [4, 14]	percent crop plant damage at 80 g/ha [5, 15]	also measured
Fc1ccccc1-c1nc2c(cc1Br)SCN2 [Example I-001, 6-bromo-5-(2-fluorophenyl)-2,3-dihydro[1,3]thiazolo[4,5-b]pyridine]	100%	100%											pre-emergence activity against ZEAMX in % (crop plant damage) ([1]; application rate 80 g/ha): 10%; percent crop plant damage (phytotoxicity) on Zea mays, post-emergence at 320 g/ha ([4]; Zea mays, 504 h, application rate 320 g/ha, read-out: post-emergence activity against ZEAMX in %): 10%; percent crop plant damage at 320 g/ha ([5]; Oryza sativa, 504 h, application rate 320 g/ha, read-out: post-emergence activity against ORYZA in %): 20%
COC(=O)CCC(=O)N1CSc2cc(Cl)c(-c3ccccc3F)nc21 [Example I-003]			90%	0%	0%								pre-emergence activity against ABUTH in % [6]: 90%; pre-emergence activity against TRZAS in % (crop plant damage) [7]: 20%; pre-emergence activity against SETVI in % ([3]; application rate 320 g/ha): 100%; pre-emergence activity against ECHCG in % ([9]; application rate 1280 g/ha): 100%; pre-emergence activity against SETVI in % ([10]; application rate 320 g/ha): 100%; post-emergence activity against DIGSA in % [11]: 100%
Cc1cc2c(nc1-c1ccccc1F)NCS2 [Example I-007, 5-(2-fluorophenyl)-6-methyl-2,3-dihydro[1,3]thiazolo[4,5-b]pyridine]	100%	100%				90%	90%	90%	100%	100%	0%	10%	
BN1CSc2cc(Br)c(-c3ccccc3C)nc21 [Example I-011]			90%	0%	0%								post-emergence activity against ECHCG in % [12]: 90%; pre-emergence activity against ZEAMX in % (crop plant damage) ([1]; application rate 320 g/ha): 10%; pre-emergence activity against LOLRI in % ([2]; application rate 320 g/ha): 100%; pre-emergence activity against SETVI in % ([3]; application rate 80 g/ha): 100%; pre-emergence activity against ECHCG in % ([9]; application rate 320 g/ha): 100%; pre-emergence activity against SETVI in % ([10]; application rate 1280 g/ha): 90%
Cc1cc2c(nc1-c1cccc(F)c1F)NCS2 [Example I-029, 5-(2,3-difluorophenyl)-6-methyl-2,3-dihydro[1,3]thiazolo[4,5-b]pyridine]		100%				90%	90%	90%	100%	100%	0%	0%	pest or weed control at 320 g/ha ([2]; Lolium rigidum, pre-emergence, 504 h, application rate 320 g/ha, read-out: pre-emergence activity against LOLRI in %): 100%
